Holding throughout (experiment): NCI tumour cell line growth inhibition, 48 h
Assay [1] relates to DMS-273.
Assay [2] deals with DMS-114.
In assay [3] the test system is M19-MEL.
Assay [4] concerns SNB-78.
In assay [5] the test system is HOP-18.
In assay [6] the test system is BT-549.
For assay [7], the system named is RXF 631.
Assay [8] has as its system LXFL 529.
For assay [9], the system named is 786-0.

The structures appear in SMILES notation.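 Where inhibition never reached the appropriate level, the endpoint shown equals the highest concentration tested. Otherwise, values were interpolated linearly from a five-concentration, 48-hour dose response in 96-well plates. GI50: concentration for 50% inhibition of growth.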 The source made the active and inactive calls. Rule as the data show it: active = GI50 up to about 1.1 µM and inactive = higher. Bounds are passed on as bounds.

On to `CNC(=O)SCC(NC(=O)CCC(N)C(=O)O)C(=O)NCC(=O)O` (stereo not drawn), for which the GI50 in [1] is > 83.9 µM (inactive); in assay [2] it was 39 µM (inactive); in [3], > 100 µM (inactive); in assay [4], > 100 µM (inactive); in assay [5], > 82.2 µM (inactive).
With `O=C1c2ccccc2C(=O)N1CC(CN1C(=O)c2ccccc2C1=O)(C(=O)OCc1ccccc1)C(=O)OCc1ccccc1`, the GI50 in assay [6] was > 100 µM (inactive).
`FC(F)(F)C1=NC(=NNc2nnc(-c3ccccc3)c(-c3ccccc3)n2)N=C(C(F)(F)F)C1`: the GI50 in assay [1] is 5.86 µM (inactive); in assay [2], 6.14 µM (inactive); in [3], 21.8 µM (inactive); in assay [4], > 67.9 µM (inactive); in [5], 50.2 µM (inactive).
Turning to `NC(=O)Nc1ccc(C(=O)NCCCNC(=O)c2ccc(NC(N)=O)cc2)cc1`, the GI50 in assay [6] is > 100 µM (inactive).
`ICC1CCCO1` (stereo not drawn): the GI50 in assay [1], in [2], in assay [7], in [4], in assay [5] and in [8] was > 100 µM (inactive) in each case.
Take `CC(C)=CCc1c(C)cc2cc3c(c(O)c2c1O)C(=O)C=C(O)C3(CC=C(C)C)C/C=C(\C)CO` (stereo not drawn): the GI50 in assay [1] was 52.8 µM (inactive); in [2], 38.9 µM (inactive); in [3] it was 37.4 µM (inactive); in assay [5] it was 3.61 µM (inactive).
In the case of `O=C1C=C(N2CC2)C(=O)C=C1N1CC1`, the GI50 in [1] is 0.0617 µM (active); in assay [6] it was 0.348 µM (active); in [4] it was 0.138 µM (active); in assay [8] it was 0.159 µM (active).
For the molecule `CCNC(=O)N(CC)CN(CC)C(=O)NCC`, the GI50 in assay [2], in [3], in assay [7], in assay [4] and in assay [8] was > 100 µM (inactive) throughout.
Consider `CCCNC1=NC(C)=CSC(Nc2ccccc2)=C1C#N`, for which the GI50 in [9] is > 100 µM (inactive).
For the molecule `C=CCN1C(=O)/C(=C/c2cccs2)N=C1SC1OC(COC(=O)c2ccccc2)C(OC(=O)c2ccccc2)C1OC(=O)c1ccccc1` (stereo not drawn), the GI50 in assay [6] is > 100 µM (inactive).

Source of the values: ChEMBL document CHEMBL1201862, “PubChem BioAssay data set” (2004).
